What was measured:
mannose isomerase [1] = test: mannose isomerase activity of the enzyme of the invention (optimum conditions, substrates, inhibitors); type: biochemical, Pseudomonas sp. AM-9582; conditions: for Inhibition of the enzyme: 5×10^-3 M of inhibitor
Protocol: It is active in a pH range from about 6 to 11, but the optimum pH is about 8 (under the reaction condition of 50° C. for 30 minutes, in 0.1M phosphate buffer).
It is active up to about 70° C., but the optimum temperature is about 55° C. under the reaction conditions of 0.1M mannose, 0.05M Tris buffer (pH 7.0) for 30 minutes.
(§1) Into 0.5 ml of a 0.1M phosphate buffer (pH 7.0) containing 0.2M mannose dissolved therein is added a suitable amount of the enzyme, the total volume is made up with water to 1.0 ml, and the reaction mixture is incubated at 50° C. The amount of fructose formed is determined by the cysteine-carbazole method. The amount of the enzyme forming 1 micromole of fructose per one minute under this condition is defined as one unit.

Salmonella = conditions: cited from earlier work
mannose isomerase [2] = test: thermal and pH stability of the enzyme of the invention (residual activity); type: physicochemical, Pseudomonas sp. AM-9582; conditions: presence of calcium ions
Protocol: The residual activities after heating treatment at 60° C. for 5, 10, 15, 20, 30 minutes in 0.05M Tris buffer (pH 7.0) are, about 90%, 68%, 52%, 42%, 30% respectively.
The residual activity was measured after the enzyme was incubated in 0.1M buffer (acetate or phosphate buffer) of various pH at room temperature (25° C.) for 3 hours. As the result, it is stable in the pH range 6 to 9.
as §1

| Structure (SMILES) | Substrate specificity (activity of the enzyme on the sugar) (mannose isomerase [1]) | other results |
| --- | --- | --- |
| O=[N+]([O-])[O-].[Ag+] [AgNO3] | – | Inhibition of the enzyme (mannose isomerase [1]): strongly inhibited |
| [Cl][Al]([Cl])[Cl] [AlCl3] | – | Inhibition of the enzyme (mannose isomerase [1]): strongly inhibited |
| O=C[C@@H](O)[C@H](O)[C@H](O)CO [D-arabinose] | not substantially | – |
| C[C@@H](O)[C@H](O)[C@H](O)[C@@H](O)C=O [D-fucose] | not substantially | – |
| O=C[C@H](O)[C@@H](O)[C@H](O)[C@H](O)CO [D-glucose] | not substantially | – |
| O=C[C@@H](O)[C@@H](O)[C@H](O)CO [D-lyxose] | active | – |
| O=C[C@@H](O)[C@@H](O)[C@H](O)[C@H](O)CO [D-mannose] | active | Growth of Salmonella (Salmonella): inhibits the growth |
| C[C@@H](O)[C@@H](O)[C@H](O)[C@H](O)C=O [D-rhamnose] | not substantially | – |
| O=C[C@H](O)[C@H](O)[C@H](O)CO [D-ribose] | not substantially | – |
| O=C[C@H](O)[C@@H](O)[C@H](O)CO [D-xylose] | not substantially | – |
| O=S(=O)([O-])[O-].[Fe+2] [FeSO4] | – | Inhibition of the enzyme (mannose isomerase [1]): strongly inhibited |
| [Cl][Hg][Cl] [HgCl2] | – | Inhibition of the enzyme (mannose isomerase [1]): strongly inhibited |
| O=C[C@H](O)[C@@H](O)[C@@H](O)CO [L-arabinose] | not substantially | – |
| C[C@H](O)[C@@H](O)[C@@H](O)[C@H](O)C=O [L-fucose] | not substantially | – |
| C[C@H](O)[C@H](O)[C@@H](O)[C@@H](O)C=O [L-rhamnose] | not substantially | – |
| O=C[C@@H](O)[C@H](O)[C@@H](O)CO [L-xylose] | not substantially | – |
| [Ca+2] [calcium ions] | – | Effect on thermal stability of the enzyme (mannose isomerase [2]): increases the thermal stability |
| O=C(O)c1cc[c]([Hg][Cl])cc1 [p-chloromercury benzoate] | – | Inhibition of the enzyme (mannose isomerase [1]): strongly inhibited |
